In the experiment the target is human α7 nAChR (Homo sapiens (Human), UniProt P36544). Kind of experiment: Automated patch-clamp electrophysiology functional assay (Assay A), IonFlux HT. Type of experiment: cell-based. The conditions noted are these: HEK cell line stably expressing human RIC-3 and human α7, whole-cell population patch, 40 μM acetylcholine. How it is done:
The α7 nAChR positive allosteric modulator (PAM) activity of the present compounds may be tested using assays known in the art. The α7 nAChR PAMs described herein have activities in an automated patch-clamp electrophysiology functional assay as described in the examples. The assay was performed using the IonFlux HT in a whole-cell, population patch configuration. See Golden et al. Assay Drug Dev. Technol. (2011) 9:608-619. The compounds were assessed for their ability to modulate the function of the human α7 nAChR stably expressed in a HEK cell line both in the presence, and in the absence of the natural α7 agonist acetylcholine. By performing a series of such measurements at different concentrations, the effective concentration of the α7 nAChR PAMs (EC50) was determined. See Spencer et al. Assay Drug Dev. Technol. (2012) 10:313-324.
Automated patch-clamp electrophysiology was performed using the IonFlux HT (Fluxion Biosciences Inc., San Francisco, Calif.) in the whole-cell, population patch configuration. Test compounds were assessed for their ability to modulate the function of the α7 nicotinic acetylcholine receptor both in the presence, and in the absence of the natural α7 agonist acetylcholine. A HEK cell line stably expressing both human RIC-3 and human α7 (PrecisION hnAChR α7/RIC-3, Eurofins Pharma, St. Charles, Mo.) was cultured in 175 cm^2 triple-layer tissue culture flasks to no more than 90% confluency in DMEM/F-12 growth media supplemented with 10% heat-inactivated fetal bovine serum, 1% non-essential amino acids, 0.625 μg/mL Puromycin, and 400 μg/mL Geneticin. Immediately prior to assay, cells were detached by first aspirating growth media, rinsing with Dulbecco's phosphate buffered saline, and then adding 10 mL of Accutase (Innovative Cell Technologies, San Diego, Calif.) to the flask and then incubating at 37° C. for 5 minutes. Detached cells were then recovered by the addition of 40 mL of CHO-serum-free media supplemented with 25 mM HEPES, and rocked gently in a 50 mL conical tube for 20 minutes prior to patch-clamp assay. After recovery, cells were pelleted by centrifugation at 1,000 RPM for 1 minute in a compact bench top centrifuge; recovery media was aspirated and cells were resuspended in external recording solution (150 mM NaCl, 5 mM KCl, 2 mM CaCl2, 1 mM MgCl2, 10 mM HEPES, 12 mM dextrose) to a density of 5.0×10^6 cells/mL. The cell suspension was added to the cell inlet wells on an IonFlux HT population patch plate which had previously been rinsed and primed with deionized H2O. Test compounds were serially diluted in DMSO and then resuspended to the final test concentration in external recording solution, with, or without 40 μM acetylcholine added to the external recording solution; test compounds were then transferred to the IonFlux HT population patch plate. Internal recording solution (110 mM TrisPO4, 28 mM TrisBase, 0.1 mM CaCl2, 2 mM MgCl2, 11 mM EGTA, 4 mM MgATP) was added to the internal recording solution inlet wells on the IonFlux HT patch plate previously loaded with cells and test compounds, and the plate loaded into the IonFlux HT instrument. A protocol was executed on the IonFlux HT to trap the cells, break into the cells, and establish the whole-cell recording configuration; cells were voltage-clamped at a holding potential of −60 mV for the duration of the experiment, all experiments were conducted at room temperature, and the IonFlux HT injection pressure was 8 psi for solution applications. Upon establishing the whole-cell configuration, external recording solution was perfused into the recording chambers for 120 seconds and then 40 μM acetylcholine was applied for 1 second and immediately washed off with external recording solution for 60 seconds. The 40 μM acetylcholine-evoked α7 current served as the current response to which subsequent test compound effects, in the presence, or in the absence of 40 μM acetylcholine would be quantified relative to. […]

Like-named read-outs stand apart in the source and are kept apart here.

Chain of human α7 nAChR (P36544 23-502): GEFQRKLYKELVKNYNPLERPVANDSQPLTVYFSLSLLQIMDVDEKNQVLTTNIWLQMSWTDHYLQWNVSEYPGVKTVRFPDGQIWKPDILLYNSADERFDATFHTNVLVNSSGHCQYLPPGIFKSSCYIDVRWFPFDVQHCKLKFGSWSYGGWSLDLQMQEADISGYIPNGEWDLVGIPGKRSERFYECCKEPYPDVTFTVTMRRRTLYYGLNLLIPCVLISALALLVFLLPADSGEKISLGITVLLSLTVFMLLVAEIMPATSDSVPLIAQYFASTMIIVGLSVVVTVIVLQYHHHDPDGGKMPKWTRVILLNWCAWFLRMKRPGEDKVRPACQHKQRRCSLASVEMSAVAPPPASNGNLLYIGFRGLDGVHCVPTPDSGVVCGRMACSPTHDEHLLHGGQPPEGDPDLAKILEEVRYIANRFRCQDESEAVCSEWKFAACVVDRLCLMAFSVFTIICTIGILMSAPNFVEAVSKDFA

Consider `CC(C)c1cccc(C2CC2c2ccc(S(N)(=O)=O)cc2)n1` (racemic) [Example A10, 4-{trans-2-[6-(Propan-2-yl)pyridin-2-yl]cyclopropyl}benzenesulfonamide], for which the EC50 (read-out: α7 nAChR Potency) fell in the range of 500 to 5000 nM.

As for `NS(=O)(=O)c1ccc([C@@H]2C[C@H]2c2ccc(-n3ccnc3)cc2)cc1` (racemic) [Example F1, 4-{trans-2-[4-(1H-Imidazol-1-yl)phenyl]cyclopropyl}benzenesulfonamide], the EC50 runs as follows: (read-out: α7 nAChR EC50) 3700 nM; (read-out: α7 nAChR Potency) 500 to 5000 nM.

Take `CC(C)c1ccc(C2CC2c2ccc(S(N)(=O)=O)cc2)nc1` (racemic) [Example A6, 4-{trans-2-[5-(Propan-2-yl)pyridin-2-yl]cyclopropyl}benzenesulfonamide]: the EC50 was 700 nM (read-out: α7 nAChR EC50) and 500 to 5000 nM (read-out: α7 nAChR Potency).

As to `CC(C)c1ccc(C2CC2c2ccc(S(N)(=O)=O)cc2)nc1` (single isomer, unassigned) [Example A5, 4-{trans-2-[5-(Propan-2-yl)pyridin-2-yl]cyclopropyl}benzenesulfonamide], for the setting “read-out: α7 nAChR Potency”, the EC50 was in the range of 500 to 5000 nM.

With `CC(C)c1cncc(C2CC2c2ccc(S(N)(=O)=O)cc2)n1` (racemic) [Example B3, 4-{trans-2-[6-(Propan-2-yl)pyrazin-2-yl]cyclopropyl}benzenesulfonamide], the EC50 (read-out: α7 nAChR Potency) was in the range of 500 to 5000 nM.

Take “tert-Butyl 4-{4-[trans-2-(4-sulfamoylphenyl)cyclopropyl]pyrimidin-2-yl}piperazine-1-carboxylate [Example D4]”: the EC50 by setting is: (read-out: α7 nAChR EC50) 720 nM; (read-out: α7 nAChR Potency) 500 to 5000 nM.

Turning to `NS(=O)(=O)c1ccc([C@@H]2C[C@H]2c2ccnc(C3CCC3)c2)cc1` (racemic) [Example E3, 4-[trans-2-(2-Cyclobutylpyridin-4-yl)cyclopropyl]benzenesulfonamide], the EC50 is, setting by setting: (read-out: α7 nAChR EC50) 500 nM; (read-out: α7 nAChR Potency) 100 to 500 nM.

For `CC(C)c1ccc(C2CC2c2ccc(S(N)(=O)=O)cc2)nn1` (racemic) [Example B2, 4-{trans-2-[6-(Propan-2-yl)pyridazin-3-yl]cyclopropyl}benzenesulfonamide], the EC50 (read-out: α7 nAChR EC50) was 8800 nM and the EC50 (read-out: α7 nAChR Potency) was in the range of 5000 to 50000 nM.

As for `CC(C)c1ccnc(C2CC2c2ccc(S(N)(=O)=O)cc2)n1` (single isomer, unassigned) [Example 5, 4-{trans-2-[4-(Propan-2-yl)pyrimidin-2-yl]cyclopropyl}benzenesulfonamide], the EC50 reads like this: (read-out: α7 nAChR EC50) 410 nM; (read-out: α7 nAChR Potency) 100 to 500 nM.

Take `CC(C)c1ccc(C2CC2c2ccc(S(N)(=O)=O)cc2)cn1` (racemic) [Example G1, 4{-trans-2-[6-(Propan-2-yl)pyridin-3-yl]cyclopropyl}benzenesulfonamide]: the EC50 (read-out: α7 nAChR Potency) is 500 to 5000 nM.

As for `NS(=O)(=O)c1ccc([C@@H]2C[C@H]2c2ccc(C3CCCC3)cn2)cc1` (racemic) [Example A13, 4-[trans-2-(5-Cyclopentylpyridin-2-yl)cyclopropyl]benzenesulfonamide], the EC50 runs as follows: (read-out: α7 nAChR EC50) 1500 nM; (read-out: α7 nAChR Potency) 500 to 5000 nM.

“4-(trans-2-{2-[(2,2-Dimethylpropyl)amino]pyrimidin-4-yl}cyclopropyl)benzenesulfonamide [Example D5]”: the EC50 was 1800 nM (read-out: α7 nAChR EC50) and 500 to 5000 nM (read-out: α7 nAChR Potency).

Consider `NS(=O)(=O)c1ccc(C2CC2c2cncc(N3CCCC3)c2)cc1` (racemic) [Example G2, 4-{trans-2-[5-(Pyrrolidin-1-yl)pyridin-3-yl]cyclopropyl}benzenesulfonamide], for which the EC50 by setting is: (read-out: α7 nAChR EC50) 3200 nM; (read-out: α7 nAChR Potency) 500 to 5000 nM.

With `CC(C)c1cccc(C2CC2c2ccc(S(N)(=O)=O)cc2)n1` (single isomer, unassigned) [Example A1, 4-{trans-2-[6-(Propan-2-yl)pyridin-2-yl]cyclopropyl}benzenesulfonamide], the EC50 (read-out: α7 nAChR Potency) fell in the range of 500 to 5000 nM.

Consider `NS(=O)(=O)c1ccc(C2CC2c2nccc(-c3cncc(C(F)(F)F)c3)n2)cc1` (single isomer, unassigned) [Example 11, 4-(trans-2-{4-[5-(Trifluoromethyl)pyridin-3-yl]pyrimidin-2-yl}cyclopropyl)benzenesulfonamide], for which the EC50 by setting is: (read-out: α7 nAChR EC50) 240 nM; (read-out: α7 nAChR Potency) 100 to 500 nM.

On to `CC(C)Oc1ccc(C2CC2c2ccc(S(N)(=O)=O)cc2)cn1` (racemic) [Example G4, 4-{trans-2-[6-(Propan-2-yloxy)pyridin-3-yl]cyclopropyl}benzenesulfonamide], for which the EC50 is, setting by setting: (read-out: α7 nAChR EC50) 1000 nM; (read-out: α7 nAChR Potency) 500 to 5000 nM.

Regarding `NS(=O)(=O)c1ccc(C2CC2c2cccc(C3CCCC3)n2)cc1` (single isomer, unassigned) [Example 3, 4-[trans-2-(6-Cyclopentylpyridin-2-yl)cyclopropyl]benzenesulfonamide], the EC50 (read-out: α7 nAChR EC50) was 1500 nM and the EC50 (read-out: α7 nAChR Potency) lay within 500 to 5000 nM.

`Cc1nc(-c2cccc([C@@H]3C[C@H]3c3ccc(S(N)(=O)=O)cc3)c2)no1` (relative stereo) [Example 7, 4-{trans-2-[3-(5-Methyl-1,2,4-oxadiazol-3-yl)phenyl]cyclopropyl}benzenesulfonamide]: the EC50 was 320 nM (read-out: α7 nAChR EC50) and 100 to 500 nM (read-out: α7 nAChR Potency).

`NS(=O)(=O)c1ccc(C2CC2c2ccnc(NCCc3ccccc3)n2)cc1` (racemic) [Example D10, 4-(trans-2-{2-[(2-Phenylethyl)amino]pyrimidin-4-yl}cyclopropyl)benzenesulfonamide]: the EC50 is 1100 nM (read-out: α7 nAChR EC50) and 500 to 5000 nM (read-out: α7 nAChR Potency).

For the compound `NS(=O)(=O)c1ccc([C@@H]2C[C@H]2c2ccnc(N3CCOCC3)n2)cc1` (relative stereo) [Example 2, 4-{trans-2-[2-(Morpholin-4-yl)pyrimidin-4-yl]cyclopropyl}benzenesulfonamide], the EC50 (read-out: α7 nAChR Potency) lay within 500 to 5000 nM.

Turning to `NS(=O)(=O)c1ccc(C2CC2c2nccc(-c3cccc(F)c3)n2)cc1` (single isomer, unassigned) [Example 10, 4-{trans-2-[4-(3-Fluorophenyl)pyrimidin-2-yl]cyclopropyl}benzenesulfonamide], the EC50 is 210 nM (read-out: α7 nAChR EC50) and 100 to 500 nM (read-out: α7 nAChR Potency).

Take `CC(C)c1cc(C2CC2c2ccc(S(N)(=O)=O)cc2)ccn1` (single isomer, unassigned) [Example 8, 4-{trans-2-[2-(Propan-2-yl)pyridin-4-yl]cyclopropyl}benzenesulfonamide]: the EC50 (read-out: α7 nAChR EC50) is 1200 nM and the EC50 (read-out: α7 nAChR Potency) lay within 500 to 5000 nM.

In the case of `CC(C)c1ccnc(C2CC2c2ccc(S(N)(=O)=O)cc2)c1` (single isomer, unassigned) [Example A2, 4-{trans-2-[4-(Propan-2-yl)pyridin-2-yl]cyclopropyl}benzenesulfonamide], the EC50 is 410 nM (read-out: α7 nAChR EC50) and 100 to 500 nM (read-out: α7 nAChR Potency).

`NS(=O)(=O)c1ccc(C2CC2c2cccc(-n3cncn3)c2)cc1` (racemic) [Example F2, 4-{trans-2-[3-(1H-1,2,4-Triazol-1-yl)phenyl]cyclopropyl}benzenesulfonamide]: the EC50 by setting is: (read-out: α7 nAChR EC50) 5200 nM; (read-out: α7 nAChR Potency) 5000 to 50000 nM.

For `CC(C)c1ccnc(C2CC2c2ccc(S(N)(=O)=O)cc2)n1` (racemic) [Example C3, 4-{trans-2-[4-(Propan-2-yl)pyrimidin-2-yl]cyclopropyl}benzenesulfonamide], the EC50 is, setting by setting: (read-out: α7 nAChR EC50) 1800 nM; (read-out: α7 nAChR Potency) 500 to 5000 nM.

As to `NS(=O)(=O)c1ccc([C@@H]2C[C@H]2c2cccc(C3CCOCC3)n2)cc1` (racemic) [Example A9, 4-{trans-2-[6-(Tetrahydro-2H-pyran-4-yl)pyridin-2-yl]cyclopropyl}benzenesulfonamide], the EC50 runs as follows: (read-out: α7 nAChR EC50) 5600 nM; (read-out: α7 nAChR Potency) 5000 to 50000 nM.

These data come from US11026958B2, “Substituted 6-membered aryl or heteroaryl allosteric modulators of nicotinic acetylcholine receptors” (Merck Sharp & Dohme Corp., priority 2016, dated 2021).
